Assay results as given in PMC6409966 (2019).

Tested on: thiolated MG binding aptamer (RNA, aptamer) GGAUCCCGACUGGCGAGAGCCAGGUAACGAAUGGAUCC
Assay: cyclic voltammetry / DPV of captured MG on aptamer electrode; EIS
Conditions: Na+ / K+ (Na2HPO4/KH2PO4 buffer); phosphate buffer pH 7.4, room temperature, 2 h; 1.0 and 10 μM MG; immobilised aptamer

- binding: yes
Compound: CN(C)c1ccc(C(=C2C=CC(=[N+](C)C)C=C2)c2ccccc2)cc1
